pIC50: −log10 of the molar value. Like-named read-outs stand apart in the source and are kept apart here.
What was measured:
[1] = target: T1, PD-L1 protein on the surface of MC38-hPDL1 tumor cells (Homo sapiens, UniProt Q9NZQ7); assay: Induction of endocytosis of PD-L1 on the surface of tumor cells (flow cytometry); format: cell-based; conditions: 16 hours incubation; for Emax: MC38-hPDL1 cells, read-out: MC38 maximum endocytosis rate; for pIC50: inducing endocytosis of PD-L1, MC38-hPDL1 cells, read-out: MC38 IC50
T1 construct: expressed in transfected cells; host or cells: MC38-hPDL1 (mouse colon cancer cells)
Summary of the method: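 IC50 comes from nonlinear fits of endocytosis rate, calculated from the loss of surface PE-anti-CD274 flow signal relative to vehicle. Cells were MC38 mouse colon cancer cells engineered to express high human PD-L1. Compound exposure lasted 16 h at 37 °C, 5% CO2.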

[2] = target: T2, human PD-L1 protein (Homo sapiens, UniProt Q9NZQ7); assay: Thermal shift: melting temperature of PD-L1 protein; format: binding; conditions: read-out: ΔTm (° C.)
T2 construct: purchased Acro Biosystems PD1-H5229
Method: Test Embodiment 4. Test of Combination of the Compounds of the Present Disclosure to Improve the Stability (Melting Temperature) of PD-L1 Protein Experimental purpose: To test the ability of compounds to enhance the stability of PD-L1 protein and increase the melting temperature of the protein. Experimental method: […] A solution containing […] HEPES, SYPRO Orange, and 150 mM NaCl was prepared as experimental buffer, and human PD-L1 protein was added at a final concentration of 2 μM. […] PCR tube was put into the PCR machine, and the melt curve function was selected to detect the melting temperature of PD-L1 protein in different treatment groups (heated from 25° C. to 95° C., 0.03° C./s). The experimental data file of the PCR instrument was imported into the thermal shift software to obtain the melting temperature (Tm) of each treatment group, and the Tm of the DMSO vehicle control group was subtracted to obtain the change value (ΔTm) of the melting temperature, as shown in the following table: […]

[3] = target: T3, human PD-1/PD-L1 binding (Homo sapiens, UniProt Q9NZQ7); assay: Inhibition of human PD-1/PD-L1 binding (TR-FRET/HTRF); conditions: TR-FRET, PD-L1-His and PD-1-Fc; read-out: PD-1/PD-L1 binding IC50
T3 construct: PD-L1-His protein (19 to 238 amino acids) (Abcam #ab167713); purchased Abcam (PD-L1-His); R&D (PD-1-Fc) ab167713; 1086-PD
Summary of the method: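 PD-L1-His (aa 19–238, diluted to 10 nM) and PD-1-Fc (aa 25–167, diluted to 20 nM) incubated with compounds (10 μM or 1 μM top, 3-fold, 11 doses) 60 min at room temperature, then anti-6HIS Eu cryptate/anti-human IgG-XL665 added for 3 h RT or overnight 4 °C. HTRF 665/620 nm ratio gave inhibition and IC50.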

[4] = compound 10 μM, PD-L1 protein 2 μM, Tm minus DMSO vehicle control

T1 sequence (Q9NZQ7 19-290): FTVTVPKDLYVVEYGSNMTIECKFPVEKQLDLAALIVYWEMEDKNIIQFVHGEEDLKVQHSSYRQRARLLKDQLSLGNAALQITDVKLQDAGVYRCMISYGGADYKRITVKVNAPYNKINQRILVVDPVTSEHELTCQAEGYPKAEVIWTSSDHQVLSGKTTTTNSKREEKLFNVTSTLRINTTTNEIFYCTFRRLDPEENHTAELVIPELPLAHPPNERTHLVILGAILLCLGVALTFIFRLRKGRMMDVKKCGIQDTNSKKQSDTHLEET
T3 sequence (Q9NZQ7 19-238): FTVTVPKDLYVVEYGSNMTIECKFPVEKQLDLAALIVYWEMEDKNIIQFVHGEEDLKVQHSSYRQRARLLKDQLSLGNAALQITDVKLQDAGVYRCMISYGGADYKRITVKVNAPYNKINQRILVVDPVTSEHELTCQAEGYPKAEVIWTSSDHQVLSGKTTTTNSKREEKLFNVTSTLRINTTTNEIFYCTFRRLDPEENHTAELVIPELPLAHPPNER
T2 sequence (Q9NZQ7 19-238 limits assumed): as the sequence (Q9NZQ7 19-238) above

Row | Compound | Emax [1] [%] | pIC50 [1] | ΔTm at 10 µM [2, 4] [°C] | pIC50 [3] | ΔTm at 10 µM [2] [°C]
1 | COc1nc(-c2cccc(-c3cccc(NC(=O)c4nc5c(n4C)CCN(C)C5)c3Cl)c2Cl)ccc1CN1CC(OC(C)=O)C1 [Embodiment 122, 1-((6-(2,2′-Dichloro-3′-(1,5-dimethyl-4,5,6,7-tetrahydro-1H-imidazo[4,5-c]pyridine-2-carboxamido)-[1,1′-biphenyl]-3-yl)-2-methoxypyridin-3-yl)methyl)azetidin-3-yl acetate] | 97 | 9.40 | 14.8 | 8.46 | 
2 | COc1nc(-c2cccc(-c3cccc(NC(=O)c4nc5c(n4C)CCN(C)C5)c3Cl)c2Cl)ccc1CNCC(=O)O [Embodiment 138, ((6-(2,2′-Dichloro-3′-(1,5-dimethyl-4,5,6,7-tetrahydro-1H-imidazo[4,5-c]pyridine-2-carboxamido)-[1,1′-biphenyl]-3-yl)-2-methoxypyridin-3-yl)methyl)glycine] | 97 | 8.35 | 14 | 9.10 | 
3 | COc1cc(-c2cccc(-c3cccc(NC(=O)c4nc5c(n4C)CCN(C)C5)c3Cl)c2Cl)ccc1CNC[C@@H](C)O [Embodiment 158, (R)—N-(2,2′-Dichloro-4″-(((2-hydroxypropyl)amino)methyl)-3″-methoxy-[1,1′:3′,1″-terphenyl]-3-yl)-1,5-dimethyl-4,5,6,7-tetrahydro-1H-imidazo[4,5-c]pyridine-2-carboxamide] | 95 | 8.77 | 10.3 | 8.19 | 
4 | COc1nc(-c2cccc(-c3cccc(NC(=O)c4nc5c(n4C)CCN(C)C5)c3Cl)c2Cl)ccc1CN1CC(C(=O)O)C1 [Embodiment 135, 1-((6-(2,2′-Dichloro-3′-(1,5-dimethyl-4,5,6,7-tetrahydro-1H-imidazo[4,5-c]pyridine-2-carboxamido)-[1,1′-biphenyl]-3-yl)-2-methoxypyridin-3-yl)methyl)azetidine-3-carboxylic Acid] | 98 | 8.51 | 16.7 | 8.92 | 
5 | COc1nc(-c2cccc(-c3cccc(NC(=O)c4nc5c(n4C)CCN(C)C5)c3Cl)c2Cl)ccc1CN1CC2(C1)CN(C(=O)CC#N)C2 [Embodiment 191, N-(2,2′-Dichloro-3′-(5-((6-(2-cyanoacetyl)-2,6-diazaspiro[3.3]heptan-2-yl)methyl)-6-methoxypyridin-2-yl)-[1,1′-biphenyl]-3-yl)-1,5-dimethyl-4,5,6,7-tetrahydro-1H-imidazo[4,5-c]pyridine-2-carboxamide] | 97 |  | 11.7 | 8.32 | 
6 | COc1nc(-c2cccc(-c3cccc(NC(=O)c4nc5c(n4C)CCN(C)C5)c3Cl)c2Cl)ccc1CN1CC(C)(O)C1 [Embodiment 130, N-(2,2′-Dichloro-3′-(5-((3-hydroxy-3-methylazetidin-1-yl)methyl)-6-methoxypyridin-2-yl)-[1,1′-biphenyl]-3-yl)-1,5-dimethyl-4,5,6,7-tetrahydro-1H-imidazo[4,5-c]pyridine-2-carboxamide] | 97 | 8.92 |  | 8.32 | 18.1
7 | COc1nc(-c2cccc(-c3cccc(NC(=O)c4nc5c(n4C)CCN(C)C5)c3Cl)c2Cl)ccc1CN1CC2(CCCO2)C1 [Embodiment 125, N-(3′-(5-((5-Oxa-2-azaspiro[3.4]octan-2-yl)methyl)-6-methoxypyridin-2-yl)-2,2′-dichloro-[1,1′-biphenyl]-3-yl)-1,5-dimethyl-4,5,6,7-tetrahydro-1H-imidazo[4,5-c]pyridine-2-carboxamide] | 96 | 9.15 |  | 8.08 | 15.6
8 | COc1cc(C(=O)Nc2cccc(-c3cccc(NC(=O)c4nc5c(n4C)CCN(C)C5)c3Cl)c2C)ncc1CN[C@@H]1CONC1=O [Embodiment 96, (R)—N-(2-Chloro-3′-(4-methoxy-5-(((3-carbonylisoxazolidin-4-yl)amino)methyl)picolinamido)-2′-methyl-[1,1′-biphenyl]-3-yl)-1,5-dimethyl-4,5,6,7-tetrahydro-1H-imidazo[4,5-c]pyridine-2-carboxamide] |  |  | 10.5 | 8.64 | 
9 | COc1cc(C(=O)Nc2cccc(-c3cccc(NC(=O)c4nc5c(n4C)CCN(C)C5)c3Cl)c2C)ncc1CNc1ccc(C)nc1 [Embodiment 92, N-(2-Chloro-3′-(4-methoxy-5-(((6-methylpyridin-3-yl)amino)methyl)picolinamido)-2′-methyl-[1,1′-biphenyl]-3-yl)-1,5-dimethyl-4,5,6,7-tetrahydro-1H-imidazo[4,5-c]pyridine-2-carboxamide] | 83 | 8.05 | 10.5 |  | 

Second part, led by results:

Row | Emax [1] [%] | pIC50 [1] | ΔTm at 10 µM [2, 4] [°C] | pIC50 [3] | Compound | ΔTm at 10 µM [2] [°C]
10 | 95 |  | 11.3 | 8.74 | COc1nc(-c2cccc(-c3cccc(NC(=O)c4nc5c(n4C)CCN(C)C5)c3Cl)c2Cl)ccc1CN1CCCC[C@H]1C(=O)O [Embodiment 230, (S)-1-((6-(2,2′-Dichloro-3′-(1,5-dimethyl-4,5,6,7-tetrahydro-1H-imidazo[4,5-c]pyridine-2-carboxamido)-[1,1′-biphenyl]-3-yl)-2-methoxypyridin-3-yl)methyl)piperidine-2-carboxylic Acid] | 
11 | 95 |  | 11.9 | 8.31 | CCn1c(C(=O)Nc2cccc(-c3cccc(-c4ccc(CN5CC(CO)C5)c(OC)n4)c3Cl)c2Cl)nc2c1CCN(C)C2 [Embodiment 239, N-(2,2′-Dichloro-3′-(5-((3-(hydroxymethyl)azetidin-1-yl)methyl)-6-methoxypyridin-2-yl)-[1,1′-biphenyl]-3-yl)-1-ethyl-5-methyl-4,5,6,7-tetrahydro-1H-imidazo[4,5-c]pyridine-2-carboxamide] | 
12 | 96 |  | 13.3 | 8.06 | COc1nc(-c2cccc(-c3cccc(NC(=O)c4nc5c(n4C)CCN(C)C5)c3Cl)c2Cl)ccc1CN1C[C@@H]2C[C@H]1CN2C(C)=O [Embodiment 205, N-(3′-(5-(((1S,4S)-5-Acetyl-2,5-diazabicyclo[2.2.1]heptan-2-yl)methyl)-6-methoxypyridin-2-yl)-2,2′-dichloro-[1,1′-biphenyl]-3-yl)-1,5-dimethyl-4,5,6,7-tetrahydro-1H-imidazo[4,5-c]pyridine-2-carboxamide] | 
13 | 94 |  | 11.1 | 8.77 | COc1nc(-c2cccc(-c3cccc(NC(=O)c4nc5c(n4C)CCN(C)C5)c3Cl)c2Cl)ccc1CN[C@@H](CO)C(=O)O [Embodiment 232, ((6-(2,2′-Dichloro-3′-(1,5-dimethyl-4,5,6,7-tetrahydro-1H-imidazo[4,5-c]pyridine-2-carboxamido)-[1,1′-biphenyl]-3-yl)-2-methoxypyridin-3-yl)methyl)-L-serine] | 
14 | 95 |  | 10.8 | 8.39 | CCn1c(C(=O)Nc2cccc(-c3cccc(-c4ccc(CN5CC6(C5)CN(C(C)=O)C6)c(OC)n4)c3Cl)c2Cl)nc2c1CCN(C)C2 [Embodiment 238, N-(3′-(5-((6-Acetyl-2,6-diazaspiro[3.3]heptan-2-yl)methyl)-6-methoxypyridin-2-yl)-2,2′-dichloro-[1,1′-biphenyl]-3-yl)-1-ethyl-5-methyl-4,5,6,7-tetrahydro-1H-imidazo[4,5-c]pyridine-2-carboxamide] | 
15 | 95 |  | 12 | 8.49 | COc1nc(-c2cccc(-c3cccc(NC(=O)c4nc5c(n4C)CCN(C)C5)c3Cl)c2Cl)ncc1CNCCO [Embodiment 229, N-(2,2′-Dichloro-3′-(5-(((2-hydroxyethyl)amino)methyl)-4-methoxypyrimidin-2-yl)-[1,1′-biphenyl]-3-yl)-1,5-dimethyl-4,5,6,7-tetrahydro-1H-imidazo[4,5-c]pyridine-2-carboxamide] | 
16 | 90 |  | 10.7 | 8.15 | COc1nc(-c2cccc(-c3cccc(NC(=O)c4nc5c(n4C)CCN(C)C5)c3Cl)c2Cl)ccc1CN1C2CC1CN(C(C)=O)C2 [Embodiment 209, N-(3′-(5-((3-Acetyl-3,6-diazabicyclo[3.1.1]heptan-6-yl)methyl)-6-methoxypyridin-2-yl)-2,2′-dichloro-[1,1′-biphenyl]-3-yl)-1,5-dimethyl-4,5,6,7-tetrahydro-1H-imidazo[4,5-c]pyridine-2-carboxamide] | 
